Among the data in PMC12193058, “Discovery of Small Molecules Targeting Norovirus 3CL Protease by Multi-Stage Virtual Screening” (International Journal of Molecular Sciences, 2025) are CC50 and EC50 values, retold here.

Series [1] is described as follows: Cytotoxicity assay (MTS) in non-infected cells. In kind it is cell-based. Particulars: mouse, RAW264.7 cells (non-infected); cytotoxic concentration to induce 50% death of non-infected cells; mean of two to three independent experiments. How it is done: (§1) Murine norovirus (MNV, strain MNV-1. CW1) was propagated as previously described. HG23 cells and RAW 264.7 cells were maintained as described earlier. The cells were incubated at 37 °C in a humidified atmosphere of 5% CO2. To obtain virus stock, once full CPE was observed, the cells underwent two freeze–thaw cycles and the virus was harvested from the supernatants after centrifugation (10 min, 1000× g) and stored at […]. The viral titer was determined by endpoint titration.
(§2) The experiment was performed as previously described. In short, RAW264.7 cells (1 × 10^4 cells/well) were infected with MNV.CW1 in the presence of a dilution series of compounds. Antiviral activity and cytotoxicity were determined using a colorimetric assay using 3-(4,5-dimethylthiazol-2-yl)-5-(3-carboxymethoxyphenyl)-2-(4 sulfophenyl)-2H-tetrazolium (MTS). The 50% effective concentration (EC50) was defined as the compound concentration that protected 50% of the cells from CPE. The cell viability % was calculated as (ODtreated/ODCC) × […] and the 50% cytotoxic concentration (CC50) was defined as the compound concentration that reduces the number of viable cells by 50%. HuNoVGI.1replicon: The experiment was performed as described earlier with minor modifications. In short, HG23 cells (7.5 × 10^2 cells/well) were seeded into the wells of a 96-well plate without G418 (Geneticin Selective Antibiotic). After 24 h of incubation, the tested compounds were added. The cells were incubated for another 72 h; then they were collected for RNA load quantification using RT-qPCR [34]. The EC50 values were defined as the compound concentration that led to a 50% reduction in the relative HuNoV GI.1 replicon RNA levels.

The subject of series [2] is Murine norovirus (MNV, strain MNV-1.CW1). Put plainly: Antiviral assay: MNV-infected RAW264.7 cells, protection from CPE (MTS). The class given is cell-based. How it is done:
as §1, §2

A value given as a limit tells only on which side of the number the result lay.

Consider `CC(C)C1C(O)=Nc2ccccc2N1C(=O)N[C@@H](Cc1ccccc1)C(=O)N[C@@H](CCC(N)=O)C(=O)O` (stereo partly shown) [YY-4047], for which, in series [1], the 50% cytotoxic concentration (CC50) (in general, the concentration at which the toxic effect on the cells reaches its halfway point) was > 50 µM. Further, in series [2], the 50% effective concentration (EC50) (as a rule, the concentration that produces a half-maximal response) is > 50 µM.

The molecule `COc1cc(NC(=O)[C@H](Cc2ccccc2)NC(=O)N2CC(O)=Nc3ccccc32)cc(OC)c1` [YY-9837] showed a CC50 in series [1] of 45 µM. In addition, the half-maximal effective concentration (EC50) in series [2] was > 50 µM.

For the molecule `COc1cncc(C(NC(=O)c2cc(=O)[nH]c3ccccc23)[C@H]2C[C@H](O)C2)c1` (stereo partly shown) [YY-3656], the CC50 in series [1] was > 50 µM. In series [2], the half-maximal effective concentration (EC50) is > 50 µM.

With `Cc1nc2ccc(NC(=O)N3CCNC(=O)C3CCO)cc2nc1C` (stereo not shown) [YY-0809], the CC50 in series [1] was > 50 µM. The EC50 in series [2] was > 50 µM.

`O=C(ON1C(=O)CCC1=O)[C@H](Cc1ccccc1)NC(=O)N1CC(O)=Nc2ccccc21` [YY-9242]: the CC50 in series [1] is > 50 µM. For the same molecule, in series [2], the EC50 is > 50 µM.

With `CNC(=O)c1ccc(C)c(NC(=O)NCCN2CCNC2=O)c1` [YY-4095], the CC50 in series [1] is > 50 µM. The EC50 in series [2] is > 50 µM.

Turning to `O=C(NCc1cccc(Cl)c1)[C@H](Cc1ccccc1)NC(=O)N1CC(O)=Nc2ccccc21` [YY-9773], the half-maximal cytotoxic concentration (CC50) in series [1] was > 50 µM. Also, the EC50 in series [2] was > 50 µM.

On to `CCCCNC(=O)[C@H](Cc1ccccc1)NC(=O)N1CC(O)=Nc2ccccc21` [YY-6127], for which the CC50 in series [1] was > 50 µM. For the same molecule, in series [2], the half-maximal effective concentration (EC50) was > 50 µM.

As to `COc1ccc(C(CC(=O)N2CCc3c([nH]c4ccccc34)C2)c2oc(C)cc(=O)c2O)cc1O` (stereo not shown) [YY-4958], the CC50 in series [1] is > 50 µM. In series [2], the EC50 is > 50 µM.

For the molecule `COc1ccc(CCN(C(=O)Cc2nnc(O)c3ccccc23)[C@@H](C)C(N)=O)cc1` [YY-8610], the CC50 in series [1] was > 50 µM. Also, the EC50 in series [2] was > 50 µM.

Take `COc1ccc(CCNC(=O)[C@H](Cc2ccccc2)NC(=O)N2CC(O)=Nc3ccccc32)cc1` [YY-4204]: the CC50 in series [1] was > 50 µM. Further, in series [2], the EC50 was > 50 µM.

Consider `CC1=NN=C(O)C1CC(=O)N/N=C/c1cccc(Br)c1` (stereo not shown) [YY-0182], for which the CC50 in series [1] was > 50 µM. Further, in series [2], the half-maximal effective concentration (EC50) was > 50 µM.

For the molecule `Cc1[nH][nH]c(=O)c1CC(=O)N1C[C@@H](c2ccccc2)O[C@@H](C(C)C)C1` [YY-0587], the half-maximal cytotoxic concentration (CC50) in series [1] was > 50 µM. Also, the EC50 in series [2] was > 50 µM.

`O=C(NC1CCCc2ccccc21)[C@H](Cc1ccccc1)NC(=O)N1CC(O)=Nc2ccccc21` (stereo partly shown) [YY-3724]: in series [1], the 50% cytotoxic concentration (CC50) is > 50 µM. In addition, in series [2], the EC50 was > 50 µM.

Take `CCC(SC1=Nc2ccccc2C2=NC(=O)C(CCC(=O)NCc3ccc(F)cc3)N12)C(=O)Nc1cccc(OC)c1` (stereo not shown) [YY-0734]: in series [1], the CC50 was > 50 µM. The EC50 in series [2] was > 50 µM.

`COc1cc(C(CC(=O)NCC(=O)NCc2ccco2)c2oc(C)cc(=O)c2O)ccc1O` (stereo not shown) [YY-0420]: the 50% cytotoxic concentration (CC50) in series [1] is > 50 µM. The EC50 in series [2] was > 50 µM.

Take `Cc1cc(N)n(CC(=O)N(Cc2cccnc2)Cc2ccc3c(c2)OCO3)n1` [YY-0744]: the CC50 in series [1] is > 50 µM. Also, the EC50 in series [2] is > 50 µM.
